In the RepoRT retention time repository (doi:10.1016/j.foodchem.2021.129757):

Key:
Settings in all cases: stereoisomer not certain
[1] = RP, 150 × 2.1 mm, 2.6 µm, 40 °C, 0.35 mL/min, estimated dead time 0.94 min; A: water + 0.1% formic acid, pH 3; B: acetonitrile + 0.1% formic acid, pH 3; gradient (min/%B) 0/0 1/0 12.5/100 14/100 14.2/0 15/0
[2] = RP, 150 × 2.1 mm, 2.6 µm, 40 °C, 0.35 mL/min, estimated dead time 0.94 min; A: water + 0.1% formic acid, pH 3; B: acetonitrile + 0.1% formic acid, pH 3; gradient (min/%B) 0/0 1/5 7/45 8.5/80 10.5/80 11/5 12/5
[3] = RP, Merck LiChrospher RP-18, 250 × 4 mm, 5 µm, 35 °C, 0.3 mL/min, estimated dead time 6.7 min; A: water + 0.5% formic acid; B: acetonitrile + 0.5% formic acid; gradient (min/%B) 0/5 10/5 30/15 45/20 65/20 95/54 110/63 115/5 135/5
[4] = RP, Waters ACQUITY UPLC BEH C18, 100 × 2.1 mm, 1.7 µm, 65 °C, 0.4 mL/min, estimated dead time 0.55 min; A: water + 0.1% formic acid, pH 3; B: 80% acetonitrile + 20% acetone + 0.1% formic acid, pH 3; gradient (min/%B) 0/0 5/100 5.5/0 6/0
[5] = RP, 50 × 0.5 mm, 2.7 µm, 35 °C, 0.01 mL/min, estimated dead time 0.62 min; A: water + 0.1% formic acid, pH 3; B: acetonitrile + 0.1% formic acid, pH 3; gradient (min/%B) 0/5 12/95 14/95 16/5
[6] = RP, Phenomenex Synergi Hydro-RP, 150 × 2 mm, 4 µm, 30 °C, 0.5 mL/min, estimated dead time 0.6 min; A: water + 0.1% formic acid, pH 3; B: acetonitrile + 0.1% formic acid, pH 3; gradient (min/%B) 0/5 1/5 35/45 40/100 45/100
[7] = RP, Phenomenex Luna Omega Polar C18, 100 × 2.1 mm, 1.6 µm, 40 °C, 0.5 mL/min, estimated dead time 0.44 min; A: water + 0.5% formic acid; B: acetonitrile + 0.5% formic acid; gradient (min/%B) 0/5 3/50 3.1/100 5/100 5.1/5 7/5
[8] = RP, Phenomenex Luna C18, 150 × 4.6 mm, 3 µm, 25 °C, 0.5 mL/min, estimated dead time 3.2 min; A: water + 0.1% formic acid, pH 3; B: acetonitrile + 0.1% formic acid, pH 3; gradient (min/%B) 0/0 30/30 35/40 50/80 52/80 60/0 65/0
[9] = RP, Waters ACQUITY UPLC HSS T3, 100 × 2.1 mm, 1.8 µm, 30 °C, 0.4 mL/min, estimated dead time 0.55 min; A: water + 0.1% formic acid, pH 3; B: acetonitrile + 0.1% formic acid, pH 3; gradient (min/%B) 0/0 2/0 15/100 22/100 22.1/0 26/0
[10] = RP, Agilent ZORBAX Eclipse XDB-C18, 100 × 2.1 mm, 1.8 µm, 50 °C, 0.4 mL/min, estimated dead time 0.55 min; A: water + 0.1% formic acid, pH 3; B: methanol + 0.1% formic acid, pH 3; gradient (min/%B) 0/2 10/100 14.5/100 14.51/2 16.5/2
[11] = RP, Waters ACQUITY UPLC BEH Shield RP18, 100 × 2.1 mm, 1.7 µm, 30 °C, 0.6 mL/min, estimated dead time 0.37 min; A: water + 0.1% formic acid, pH 3; B: acetonitrile + 0.1% formic acid, pH 3; gradient (min/%B) 0/0 2/0 7/10 22/95 22.1/0 26/0
[12] = RP, Waters ACQUITY UPLC BEH Shield RP18, 150 × 2.1 mm, 1.7 µm, 40 °C, 0.4 mL/min, estimated dead time 0.83 min; A: water + 0.1% formic acid, pH 3; B: acetonitrile + 0.1% formic acid, pH 3; gradient (min/%B) 0/0 30/50 31/100 37/100 37.1/0
[13] = RP, Agilent InfinityLab Poroshell 120 EC-C18, 100 × 3 mm, 2.7 µm, 25 °C, 0.4 mL/min, estimated dead time 1.1 min; A: water + 0.1% formic acid, pH 3; B: acetonitrile + 0.1% formic acid, pH 3; gradient (min/%B) 0/5 10/25 20/40 24/90 25/90 26/5 30/5
[14] = RP, Waters ACQUITY UPLC HSS T3, 100 × 2.1 mm, 50 °C; A: water + 0.1% formic acid, pH 3; B: 30% methanol + 70% acetonitrile + 0.1% formic acid, pH 3; gradient (min/%B) 0/5 1/8 2/15 3/40 4/70 4.5/100 5/100 6.4/100 6.6/5 6.8/5 7/5
[15] = RP, Agilent ZORBAX RRHD Eclipse Plus C18, 50 × 2.1 mm, 1.8 µm, 30 °C, 0.4 mL/min, estimated dead time 0.28 min; A: water + 0.1% formic acid, pH 3; B: acetonitrile + 0.1% formic acid, pH 3; gradient (min/%B) 0/1 5/10 8/25 9.1/99 10/99 12/1
[16] = RP, Agilent ZORBAX RRHD Eclipse Plus C18, 50 × 2.1 mm, 1.8 µm, 30 °C, 0.4 mL/min, estimated dead time 0.28 min; A: water + 0.1% formic acid, pH 3; B: acetonitrile + 0.1% formic acid, pH 3; gradient (min/%B) 0/1 5/10 8/25 9.1/99 10/99 12/99
[17] = RP, Phenomenex Synergi Hydro-RP, 250 × 2 mm, 4 µm, 25 °C, 0.2 mL/min, estimated dead time 2.5 min; A: water + 0.1% formic acid, pH 3; B: acetonitrile + 0.1% formic acid, pH 3; gradient (min/%B) 0/0.5 7/0.5 12/12.5 25/16.3 47/35 48/65 50/65 50.1/0.5
[18] = RP, Waters Atlantis T3, 100 × 2.1 mm, 3 µm, 40 °C, 0.3 mL/min, estimated dead time 0.73 min; A: water + 0.1% trifluoroacetic acid, pH 2; B: acetonitrile + 0.1% trifluoroacetic acid, pH 2; gradient (min/%B) 0/10 1/10 6/40 7/50 8/50 14/70 16/80 20/10 25/10

Work on `COc1cc(C=O)cc(OC)c1O` [Syringaldehyde] yielded an LC retention time [1] of 5.74 min, an LC retention time [2] of 5.66 min and an LC retention time [3] of 58.1 min. It also gave an LC retention time [4] of 2.11 min.

Compound `COc1ccc(-c2cc(=O)c3c(OC)c(OC)c(OC)c(OC)c3o2)cc1` [Tangeretin] has an LC retention time [5] of 7.8 min, an LC retention time [6] of 36.5 min and an LC retention time [7] of 3.93 min. For the same compound, the LC retention time [8] was 49 min, the LC retention time [9] was 13.7 min and the LC retention time [10] was 8.59 min. The LC retention time [11] was 16.9 min, the LC retention time [12] was 26.7 min and the LC retention time [13] was 22.8 min.

In the case of `OCCc1ccc(O)cc1` [Tyrosol], the LC retention time [3] is reported as 38.7 min.

`Cc1c(C)c2c(c(C)c1O)CCC(C)(CCCC(C)CCCC(C)CCCC(C)C)O2` (stereo not drawn) [alpha-tocopherol] showed an LC retention time [5] of 13.2 min, an LC retention time [7] of 4.03 min and an LC retention time [9] of 15.6 min. For the same compound, the LC retention time [10] was 12.5 min, the LC retention time [4] was 5.55 min and the LC retention time [11] was 18.1 min.

Work on `CCC(CCC(C)C1CCC2C3CC=C4CC(O)CCC4(C)C3CCC12C)C(C)C` (stereo not drawn) [beta-sitosterol] yielded an LC retention time [7] of 3.92 min.

`O=C(O)c1cc(O)c(O)c(O)c1` [gallic acid] showed an LC retention time [6] of 2.13 min.

Compound `OCCc1ccc(O)c(O)c1` [hydroxytyrosol] has an LC retention time [6] of 5 min.

`O=C(O)/C=C/c1cccc(O)c1` [m-Coumaric acid] showed an LC retention time [14] of 3.53 min, an LC retention time [3] of 63.4 min and an LC retention time [4] of 2.14 min. It also gave an LC retention time [15] of 7.72 min, an LC retention time [16] of 7.99 min and an LC retention time [17] of 33.9 min. For the same compound, the LC retention time [18] was 7.5 min.

Compound `O=C(O)CC(O)C(=O)O` (stereo not given) [malic acid] has an LC retention time [3] of 8.06 min and an LC retention time [17] of 3.87 min.

Work on `OC1C(O)C(O)C(O)C(O)C1O` (stereo not given) [myo-inositol] yielded an LC retention time [6] of 8.53 min.

In the case of `COc1cc(C=CC(=O)O)cc(OC)c1OC` [o-Methylsinapic acid], the LC retention time [1] is reported as 7.02 min, the LC retention time [2] is reported as 7.28 min and the LC retention time [3] is reported as 90.1 min. The LC retention time [12] was 15.8 min.

`C[N+]1(C)CCCC1C(=O)[O-]` (stereo not given) [stachydrine (proline betaine)] showed an LC retention time [6] of 0.844 min.

With `Cn1cnc2c1c(=O)[nH]c(=O)n2C` [theobromine] the LC retention time [6] was 4.64 min.

In the case of `C[n+]1cccc(C(=O)[O-])c1` [trigonelline], the LC retention time [6] is reported as 0.731 min.

`O=c1oc2cc(O)ccc2c2ccc(O)cc12` [urolithin A] showed an LC retention time [6] of 21 min.

In the case of `O=c1oc2cc(O)ccc2c2ccccc12` [urolithin B], the LC retention time [6] is reported as 28.6 min.

For `CC1CCC2(C(=O)O)CCC3(C)C(=CCC4C5(C)CCC(O)C(C)(C)C5CCC43C)C2C1C` (stereo not given) [ursolic acid], the LC retention time [6] was 42 min.

Work on `COc1cc(C(=O)O)ccc1O` [vanillic acid] yielded an LC retention time [6] of 9.27 min.

`COc1cc(C=O)ccc1O` [vanillin] gave an LC retention time [6] of 8.67 min.
